Source: PubChem BioAssay AID256 (DTP/NCI, 2004)
Several values for one entry are separate records, joined by “and”; a condition that tells them apart may be missing. Equal entries are not always repeated. Inconclusive results and toxic doses are left out.

Test system: CD2F1 mice, L1210 leukemia ip, survival T/C
Assay: NCI In Vivo Anticancer Drug Screen. Data for tumor model L1210 Leukemia (intraperitoneal) in CD2F1 (CDF1) mice
Conditions: higher = longer survival
Outline: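 Each value reflects a quotient of treated over vehicle control outcomes in mice with a transplanted tumor.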

[1] = endpoint: mean survival time, dose: 25.0 mg/kg/injection, schedule: Q04DX003 (ip), vehicle: saline with Tween-80
[2] = endpoint: mean survival time, dose: 50.0 mg/kg/injection, schedule: Q04DX003 (ip), vehicle: saline with Tween-80
[3] = endpoint: mean survival time, dose: 100.0 mg/kg/injection, schedule: Q04DX003 (ip), vehicle: saline with Tween-80
[4] = endpoint: mean survival time, dose: 50.0 mg/kg/injection, schedule: Q01DX009 (ip), vehicle: saline with Tween-80
[5] = endpoint: mean survival time, dose: 100.0 mg/kg/injection, schedule: Q01DX009 (ip), vehicle: saline with Tween-80
[6] = endpoint: mean survival time, dose: 200.0 mg/kg/injection, schedule: Q01DX009 (ip), vehicle: saline with Tween-80
[7] = endpoint: mean survival time, dose: 200.0 mg/kg/injection, schedule: Q04DX003 (ip), vehicle: saline with Tween-80
[8] = endpoint: mean survival time, dose: 400.0 mg/kg/injection, schedule: Q01DX009 (ip), vehicle: saline with Tween-80
[9] = endpoint: mean survival time, dose: 100.0 mg/kg/injection, schedule: Q04DX002 (ip), vehicle: saline with Tween-80
[10] = endpoint: mean survival time, dose: 200.0 mg/kg/injection, schedule: Q04DX002 (ip), vehicle: saline with Tween-80

In the case of `C#CC(C)OCC1CNC(=S)O1` (stereo not given), the T/C (endpoint: mean survival time, dose: 25.0 mg/kg/injection, schedule: Q01DX009 (ip), vehicle: Klucel (hydroxypropylcellulose) (HPC)) is reported as 96 % of control, the T/C (endpoint: mean survival time, dose: 50.0 mg/kg/injection, schedule: Q01DX009 (ip), vehicle: Klucel (hydroxypropylcellulose) (HPC)) is reported as 92 % of control and the T/C (endpoint: mean survival time, dose: 100.0 mg/kg/injection, schedule: Q01DX009 (ip), vehicle: Klucel (hydroxypropylcellulose) (HPC)) is reported as 94 % of control. For the same compound, the T/C (endpoint: mean survival time, dose: 200.0 mg/kg/injection, schedule: Q01DX009 (ip), vehicle: Klucel (hydroxypropylcellulose) (HPC)) was 97 % of control and the T/C (endpoint: mean survival time, dose: 400.0 mg/kg/injection, schedule: Q01DX009 (ip), vehicle: Klucel (hydroxypropylcellulose) (HPC)) was 91 % of control.
With `CCCCc1ccc(O)c(CN2CCCCC2)c1` the T/C [1] was 97 % of control, the T/C [2] was 102 % of control and the T/C [3] was 98 % of control and 100 % of control.
With `O=C(O)c1cc(F)c(F)c(F)c1F` the T/C (endpoint: mean survival time, dose: 12.5 mg/kg/injection, schedule: Q01DX009 (ip), vehicle: saline with Tween-80) was 91 % of control, the T/C (endpoint: mean survival time, dose: 25.0 mg/kg/injection, schedule: Q01DX009 (ip), vehicle: saline with Tween-80) was 97 % of control and the T/C [1] was 96 % of control. The T/C [4] was 103 % of control and the T/C [2] was 94 % of control.
In the case of `COc1ccc(NC(=S)/C(=C(\[O-])c2ccc([N+](=O)[O-])cc2)[n+]2ccc(C(C)C)cc2)cc1`, the T/C [5] is reported as 91 % of control and the T/C [6] is reported as 97 % of control.
`CSc1nc(SC)c2cnn(C3OC(CO)C(O)C3O)c2n1` (stereo not given) was tested, and the T/C (endpoint: median survival time, dose: 3.12 mg/kg/injection, schedule: Q01DX005 (ip), vehicle: saline with Tween-80) was 95 % of control, the T/C (endpoint: median survival time, dose: 6.25 mg/kg/injection, schedule: Q01DX005 (ip), vehicle: saline with Tween-80) was 100 % of control and the T/C (endpoint: median survival time, dose: 12.5 mg/kg/injection, schedule: Q01DX005 (ip), vehicle: saline with Tween-80) was 102 % of control and 103 % of control. For the same compound, the T/C (endpoint: median survival time, dose: 25.0 mg/kg/injection, schedule: Q01DX005 (ip), vehicle: saline with Tween-80) was 102 % of control and 101 % of control and 97 % of control, the T/C (endpoint: median survival time, dose: 50.0 mg/kg/injection, schedule: Q01DX005 (ip), vehicle: saline with Tween-80) was 102 % of control and 101 % of control and 97 % of control and the T/C (endpoint: median survival time, dose: 100.0 mg/kg/injection, schedule: Q01DX005 (ip), vehicle: saline with Tween-80) was 102 % of control and 95 % of control. The T/C (endpoint: median survival time, dose: 200.0 mg/kg/injection, schedule: Q01DX005 (ip), vehicle: saline with Tween-80) was 93 % of control and 95 % of control.
With `N#CC1(Nc2ccccc2)CCCCC1` the T/C (endpoint: mean survival time, dose: 50.0 mg/kg/injection, schedule: Q01DX009 (ip), vehicle: other) was 95 % of control, the T/C (endpoint: mean survival time, dose: 100.0 mg/kg/injection, schedule: Q01DX009 (ip), vehicle: other) was 102 % of control and the T/C [3] was 97 % of control. The T/C [7] was 100 % of control.
`COc1ccc2c(c1)c1c(C)c3cnccc3c(C)c1n2CCO` was tested, and the T/C [3] was 112 % of control and the T/C [7] was 115 % of control.
In the case of `CCCCCCCCCCCCN(CN1C(=O)c2ccccc2C1=O)CN1C(=O)c2ccccc2C1=O`, the T/C [5] is reported as 92 % of control and the T/C [8] is reported as 86 % of control.
In the case of `C/C=C1\CN2CCC34c5ccccc5N5C(=O)CCC(C1CC23)C54` (stereo not given), the T/C (endpoint: mean survival time, dose: 5.0 mg/kg/injection, schedule: Q01DX001 (ip), vehicle: saline) is reported as 98 % of control, the T/C (endpoint: mean survival time, dose: 10.0 mg/kg/injection, schedule: Q01DX001 (ip), vehicle: saline) is reported as 98 % of control and the T/C (endpoint: mean survival time, dose: 20.0 mg/kg/injection, schedule: Q01DX001 (ip), vehicle: saline) is reported as 98 % of control. For the same compound, the T/C (endpoint: mean survival time, dose: 40.0 mg/kg/injection, schedule: Q01DX001 (ip), vehicle: saline) was 100 % of control.
With `O=C(O)C1C2CCCCC2=C2CCCCC2C1C(=O)O` (stereo not given) the T/C [5] was 98 % of control and the T/C [6] was 104 % of control.
For `CCCCCCCCCCCCc1ccc(NC(C)=O)cc1`, the T/C (endpoint: mean survival time, dose: 100.0 mg/kg/injection, schedule: Q04DX003 (ip), vehicle: other) was 97 % of control, the T/C (endpoint: mean survival time, dose: 200.0 mg/kg/injection, schedule: Q04DX003 (ip), vehicle: other) was 95 % of control and the T/C (endpoint: mean survival time, dose: 400.0 mg/kg/injection, schedule: Q04DX003 (ip), vehicle: other) was 100 % of control.
`CC(O)C1OC(n2cnc3c(=S)nc[nH]c32)C(O)C1O` (stereo not given) was tested, and the T/C (endpoint: median survival time, dose: 12.5 mg/kg/injection, schedule: Q01DX005 (ip), vehicle: distilled water + Tween-80) was 119 % of control and 107 % of control and the T/C (endpoint: median survival time, dose: 25.0 mg/kg/injection, schedule: Q01DX005 (ip), vehicle: distilled water + Tween-80) was 116 % of control and 124 % of control.
With `CCCCCCCCCCCCSC#N` the T/C (endpoint: mean survival time, dose: 100.0 mg/kg/injection, schedule: Q04DX002 (ip), vehicle: Klucel (hydroxypropylcellulose) (HPC)) was 101 % of control, the T/C [9] was 96 % of control and the T/C (endpoint: mean survival time, dose: 200.0 mg/kg/injection, schedule: Q04DX002 (ip), vehicle: Klucel (hydroxypropylcellulose) (HPC)) was 101 % of control. The T/C [10] was 101 % of control.
In the case of `CCC(=O)C(C)N(C)c1ccccc1` (stereo not given), the T/C (endpoint: mean survival time, dose: 100.0 mg/kg/injection, schedule: Q04DX003 (ip), vehicle: saline) is reported as 100 % of control, the T/C (endpoint: mean survival time, dose: 200.0 mg/kg/injection, schedule: Q04DX003 (ip), vehicle: saline) is reported as 100 % of control and the T/C (endpoint: mean survival time, dose: 400.0 mg/kg/injection, schedule: Q04DX003 (ip), vehicle: saline) is reported as 94 % of control.
With `C=CCOCC1CO1` (stereo not given) the T/C (endpoint: mean survival time, dose: 12.5 mg/kg/injection, schedule: Q01DX009 (ip), vehicle: saline) was 102 % of control and 103 % of control, the T/C (endpoint: mean survival time, dose: 25.0 mg/kg/injection, schedule: Q01DX009 (ip), vehicle: saline) was 102 % of control and 111 % of control and the T/C [4] was 100 % of control. For the same compound, the T/C (endpoint: mean survival time, dose: 50.0 mg/kg/injection, schedule: Q01DX009 (ip), vehicle: saline) was 98 % of control and 108 % of control, the T/C [5] was 97 % of control and the T/C (endpoint: mean survival time, dose: 100.0 mg/kg/injection, schedule: Q01DX009 (ip), vehicle: saline) was 94 % of control and 104 % of control. For the same compound, the T/C [6] was 103 % of control, the T/C (endpoint: mean survival time, dose: 200.0 mg/kg/injection, schedule: Q01DX009 (ip), vehicle: saline) was 114 % of control and 105 % of control and the T/C [8] was 105 % of control.
In the case of `COc1c(C)c2c(c3c1CCC(C)(CCC(=O)O)O3)C(=O)OC2` (stereo not given), the T/C [9] is reported as 103 % of control, the T/C [10] is reported as 108 % of control and the T/C (endpoint: mean survival time, dose: 400.0 mg/kg/injection, schedule: Q04DX002 (ip), vehicle: saline with Tween-80) is reported as 100 % of control.
With `O=S1(=O)CCS(=O)(=O)C1` the T/C (endpoint: mean survival time, dose: 50.0 mg/kg/injection, schedule: Q01DX001 (ip), vehicle: saline with Tween-80) was 104 % of control, the T/C (endpoint: mean survival time, dose: 100.0 mg/kg/injection, schedule: Q01DX001 (ip), vehicle: saline with Tween-80) was 98 % of control and the T/C (endpoint: mean survival time, dose: 200.0 mg/kg/injection, schedule: Q01DX001 (ip), vehicle: saline with Tween-80) was 95 % of control.
In the case of `Nc1ncnc2[nH]ncc12`, the T/C (endpoint: median survival time, dose: 3.0 mg/kg/injection, schedule: Q01DX009 (ip), vehicle: saline) is reported as 100 % of control and 105 % of control, the T/C (endpoint: median survival time, dose: 6.0 mg/kg/injection, schedule: Q01DX009 (ip), vehicle: saline) is reported as 114 % of control and 111 % of control and the T/C (endpoint: median survival time, dose: 12.0 mg/kg/injection, schedule: Q01DX009 (ip), vehicle: saline) is reported as 121 % of control and 111 % of control.
`CC1=CC=CNC1(N)Br` (stereo not given) was tested, and the T/C (endpoint: mean survival time, dose: 100.0 mg/kg/injection, schedule: Q01DX001 (ip), vehicle: saline) was 100 % of control, the T/C (endpoint: mean survival time, dose: 200.0 mg/kg/injection, schedule: Q01DX001 (ip), vehicle: saline) was 104 % of control and the T/C (endpoint: mean survival time, dose: 400.0 mg/kg/injection, schedule: Q01DX001 (ip), vehicle: saline) was 100 % of control.
For `Nc1ccn(C2CC(CO)C(O)C2O)c(=O)n1` (stereo not given), the T/C (endpoint: mean survival time, dose: 150.0 mg/kg/injection, schedule: Q01DX009 (ip), vehicle: saline) was 204 % of control.
